Among the test systems are COLO 205; SK-OV-3; HCC 2998; SR; MCF7; UO-31; NCI-H23; PC-3; HCT-15; KM12; T47D; CCRF-CEM; ACHN; OVCAR-3; IGROV-1; MDA-N; Malme-3M; HOP-62; RXF 393; SNB-75.
What all share (experiment): NCI anticancer screen, dose series, 48 h

The structures appear in SMILES notation.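 48-hour exposure; five concentrations; linearly interpolated endpoints. GI50 = concentration required for 50% inhibition of growth.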 The source made the active and inactive calls. No stated cut-off is given here; in the data, active = GI50 up to about 1.1 µM and inactive = higher.

Consider `CC(=O)c1c(C)[n+]([O-])c2cc(Cl)c(Cl)cc2[n+]1[O-]`, for which the GI50 was 15.7 µM (inactive) in the test on COLO 205; 19.4 µM (inactive) in the test with SK-OV-3; 21.6 µM (inactive) with HCC 2998; 6.75 µM (inactive) in the test with SR; 14.8 µM (inactive) in the test on MCF7; 14.9 µM (inactive) in the test with UO-31. Moreover, the GI50 with NCI-H23 is 26.4 µM (inactive); in the test with PC-3, 17.7 µM (inactive); in the test on HCT-15, 12.2 µM; with KM12, 10.3 µM (inactive); in the test on T47D it was 12.7 µM (inactive); with CCRF-CEM, 13.7 µM (inactive). The GI50 in the test on ACHN is 17.8 µM (inactive); with OVCAR-3, 19.9 µM (inactive); in the test with IGROV-1 it was 4.98 µM (inactive); with MDA-N, 22.6 µM (inactive); in the test on Malme-3M it was 6.58 µM (inactive); with HOP-62, 23.1 µM (inactive). Also, the GI50 with RXF 393 was > 100 µM (inactive).
For the compound `CC(C)Cc1cnc(CC(C)C)c(=O)[nH]1`, the GI50 with COLO 205, with SK-OV-3, in the test on HCC 2998, in the test with SR, in the test on MCF7 and with UO-31 was > 100 µM (inactive) in each case. Moreover, the GI50 with NCI-H23 is > 100 µM (inactive); with PC-3, > 100 µM (inactive); in the test with HCT-15, greater than 100 µM; in the test on KM12, > 100 µM (inactive); with T47D it was > 100 µM (inactive); in the test with CCRF-CEM, > 100 µM (inactive). Further, the GI50 with ACHN, in the test with OVCAR-3, in the test with IGROV-1, in the test with SNB-75, in the test on MDA-N and in the test with HOP-62 was > 100 µM (inactive) each time. In the test on RXF 393, the GI50 was > 100 µM (inactive).
For `COCOCC1CCCN1CN1CCC[C@H]1COCOC` (stereo partly specified), the GI50 is 77.8 µM (inactive) in the test with COLO 205; > 100 µM (inactive) in the test with SK-OV-3; 49.8 µM (inactive) in the test with SR; 53.1 µM (inactive) with MCF7; > 100 µM (inactive) in the test with UO-31; > 100 µM (inactive) in the test on NCI-H23. Further, the GI50 in the test with PC-3 was > 100 µM (inactive); in the test with HCT-15 it was 38.3 µM; in the test with KM12, > 100 µM (inactive); with T47D, > 100 µM (inactive); in the test on CCRF-CEM, 39.2 µM (inactive); in the test with ACHN it was > 100 µM (inactive). In addition, the GI50 in the test with OVCAR-3, in the test on IGROV-1, in the test on SNB-75, in the test with MDA-N and in the test with HOP-62 was > 100 µM (inactive) in each case.
With `CC(=O)Oc1ccc2c(c1OC(C)=O)CCC1C2=CC[C@]2(C)C(=O)CCC12` (stereo partly specified), the GI50 in the test with COLO 205 is 14.5 µM (inactive); with SK-OV-3 it was 20.7 µM (inactive); in the test with SR, 6.61 µM (inactive); in the test with MCF7 it was 14.2 µM (inactive); with UO-31, 9.57 µM (inactive); with NCI-H23, 21.4 µM (inactive). For the same compound, the GI50 in the test with PC-3 is 3.24 µM (inactive); in the test on HCT-15 it was 10.6 µM; in the test on KM12, 16 µM (inactive); with T47D, 9.46 µM (inactive); with CCRF-CEM, 3.37 µM (inactive); in the test on ACHN it was 11.8 µM (inactive). Further, the GI50 was 2.44 µM (inactive) in the test on OVCAR-3; 4.73 µM (inactive) with IGROV-1; 14.2 µM (inactive) in the test on MDA-N; 13.8 µM (inactive) in the test with Malme-3M; 19.7 µM (inactive) in the test on HOP-62.
Take `O=C1CS(=O)(=O)C(c2cccc(Oc3ccccc3)c2)N1c1cc(Cl)ccc1Cl` (stereo unspecified): the GI50 in the test on COLO 205 was 30.2 µM (inactive); in the test on SK-OV-3, 24 µM (inactive); in the test on HCC 2998, 18.8 µM (inactive); with SR, 16.8 µM (inactive); with MCF7, 16.1 µM (inactive); in the test with UO-31, 20.1 µM (inactive). Further, the GI50 with NCI-H23 is 29.1 µM (inactive); in the test on PC-3, 14.7 µM (inactive); with HCT-15 it was 24.9 µM; in the test on KM12, 17.8 µM (inactive); with T47D, 15.6 µM (inactive); with CCRF-CEM, 15.4 µM (inactive). The GI50 in the test on ACHN was 19.7 µM (inactive); in the test on OVCAR-3 it was 19 µM (inactive); with SNB-75 it was 14.6 µM (inactive); in the test with MDA-N, 16.7 µM (inactive); with Malme-3M, 47 µM (inactive).
Turning to `Cc1cccc2c(N)c3cccc(C(=O)NCC[N+](C)(C)[O-])c3nc12`, the GI50 in the test on COLO 205 was 9.57 µM (inactive); with SK-OV-3, 14 µM (inactive); in the test on HCC 2998, 10.2 µM (inactive); in the test with MCF7 it was 2.1 µM (inactive); with UO-31 it was 21.7 µM (inactive); in the test with NCI-H23 it was 3.76 µM (inactive). The GI50 in the test with PC-3 is 13.5 µM (inactive); in the test with HCT-15, 11.3 µM; in the test on KM12, > 100 µM (inactive); in the test on T47D, 13.8 µM (inactive); with CCRF-CEM, 2.49 µM (inactive); in the test on ACHN it was 2.83 µM (inactive). Besides, the GI50 with OVCAR-3 is 16.1 µM (inactive); in the test with IGROV-1, 8.39 µM (inactive); in the test on SNB-75, 1.32 µM (inactive); in the test on MDA-N, 14.2 µM (inactive); in the test on Malme-3M, 12.7 µM (inactive); with HOP-62, 3.61 µM (inactive). In addition, the GI50 in the test with RXF 393 is 12.6 µM (inactive).
On to `Clc1ccc(-c2nn3c(COc4cccc(OCc5nnc6sc(-c7ccc(Cl)cc7)nn56)c4)nnc3s2)cc1`, for which the GI50 was 29.2 µM (inactive) with COLO 205; 51.3 µM (inactive) with SK-OV-3; 32.1 µM (inactive) in the test on HCC 2998; 11.2 µM (inactive) in the test with SR; 14.1 µM (inactive) in the test with MCF7; 19.5 µM (inactive) with UO-31. The GI50 was 22.3 µM (inactive) in the test with NCI-H23; 33.1 µM (inactive) in the test with PC-3; 27.5 µM in the test with HCT-15; 29.5 µM (inactive) in the test on KM12; 17.3 µM (inactive) with T47D; 22.4 µM (inactive) in the test with ACHN. The GI50 with OVCAR-3 is 6.78 µM (inactive); in the test with IGROV-1 it was 26.8 µM (inactive); in the test on SNB-75, 23 µM (inactive); in the test with MDA-N, 15.7 µM (inactive); with Malme-3M, 19.2 µM (inactive); with HOP-62, 56.6 µM (inactive). Besides, the GI50 in the test on RXF 393 was 16.1 µM (inactive).
Turning to `COc1ccc(CC2Cc3ccccc3CC(=O)N2)cc1OC` (stereo unspecified), the GI50 with COLO 205 is > 100 µM (inactive); in the test with SK-OV-3 it was > 100 µM (inactive); in the test on HCC 2998 it was > 100 µM (inactive); in the test with SR, 67.9 µM (inactive); in the test on MCF7, 52 µM (inactive); in the test on UO-31, > 100 µM (inactive). Further, the GI50 with NCI-H23 is 87.7 µM (inactive); with PC-3 it was 40.3 µM (inactive); in the test with HCT-15, greater than 100 µM; in the test on KM12 it was 39.2 µM (inactive); in the test with T47D, 17.3 µM (inactive); with CCRF-CEM it was 28.1 µM (inactive). Further, the GI50 in the test with ACHN was > 100 µM (inactive); with OVCAR-3 it was 97.3 µM (inactive); in the test with IGROV-1, > 100 µM (inactive); in the test with SNB-75 it was 48.2 µM (inactive); in the test with MDA-N, 52.5 µM (inactive); with Malme-3M it was > 100 µM (inactive). In the test with HOP-62, the GI50 was > 100 µM (inactive).
For the compound `CC(C)[C@@H]1NC(=O)[C@H]2N=C(O[C@@H]2C)[C@@H]2CCCN2C(=O)[C@H](Cc2ccccc2)NC(=O)[C@@H]2CSC(=N2)[C@@H](Cc2ccccc2)NC(=O)[C@@H]2CSC1=N2`, the GI50 in the test with COLO 205 was 24.7 µM (inactive); with SK-OV-3 it was > 50 µM (inactive); in the test with HCC 2998 it was 21.9 µM (inactive); in the test with MCF7, 18.9 µM (inactive); in the test with UO-31 it was > 50 µM (inactive); in the test with NCI-H23, > 50 µM (inactive). In addition, the GI50 was 21.8 µM (inactive) with PC-3; 33.2 µM with HCT-15; 25.6 µM (inactive) with KM12; > 50 µM (inactive) in the test with T47D; 16.3 µM (inactive) in the test on CCRF-CEM; > 50 µM (inactive) in the test with ACHN. For the same compound, the GI50 in the test on OVCAR-3 was 47 µM (inactive); in the test on IGROV-1, > 50 µM (inactive); in the test on SNB-75, 0.216 µM (active); in the test with MDA-N it was > 50 µM (inactive); in the test with Malme-3M it was > 50 µM (inactive); in the test on HOP-62, > 50 µM (inactive). Moreover, the GI50 in the test with RXF 393 is 39 µM (inactive).
Turning to `CC(C)CC(N)C(=O)NC(C(=O)NC(CCCNC(=N)N)C(=O)NC(CS)C(=O)NC1CSCC(C(=O)NC(Cc2ccccc2)C(=O)NC(C(=O)NC(CCCNC(=N)N)C(=O)O)C(C)C)NC(=O)C2CCCN2C(=O)C(CCCCN)NC(=O)C2CCCN2C(=O)C2CCCN2C(=O)C(Cc2ccc(O)cc2)NC(=O)C(CO)NC(=O)C(CCCCN)NC(=O)C(C(C)O)NC(=O)C(Cc2c[nH]c3ccccc23)NC1=O)C(C)C` (stereo unspecified), the GI50 in the test with COLO 205, in the test with SK-OV-3, in the test on SR, in the test on MCF7, in the test on UO-31 and in the test with NCI-H23 was > 25 µM (inactive) in each case. For the same compound, the GI50 is > 25 µM (inactive) in the test on PC-3; greater than 25 µM in the test with HCT-15; > 25 µM (inactive) with KM12; > 25 µM (inactive) in the test with T47D; > 25 µM (inactive) in the test with CCRF-CEM; > 25 µM (inactive) with ACHN. For the same compound, the GI50 in the test on OVCAR-3, with IGROV-1, in the test on MDA-N, with Malme-3M and in the test on HOP-62 was > 25 µM (inactive) in each case.
For the compound `O=CN1CCN(C(=O)c2ccco2)C1=S`, the GI50 is 10.1 µM (inactive) in the test with COLO 205; 24.3 µM (inactive) in the test on SK-OV-3; 2.11 µM (inactive) with SR; 2.7 µM (inactive) with MCF7; 4.49 µM (inactive) with UO-31; 15.6 µM (inactive) in the test on NCI-H23. Also, the GI50 was 7.29 µM (inactive) in the test on PC-3; 7.83 µM with HCT-15; 6.18 µM (inactive) in the test on KM12; 4.07 µM (inactive) in the test with T47D; 3.7 µM (inactive) in the test on CCRF-CEM; 10 µM (inactive) with ACHN. Further, the GI50 is 4.39 µM (inactive) in the test with OVCAR-3; 9.38 µM (inactive) with IGROV-1; 12.5 µM (inactive) in the test on SNB-75; 7.62 µM (inactive) with MDA-N; 11.3 µM (inactive) in the test with Malme-3M; 13.2 µM (inactive) in the test on HOP-62. Moreover, in the test on RXF 393, the GI50 is 6.64 µM (inactive).

For the origin of these results see ChEMBL document CHEMBL1201862, “PubChem BioAssay data set” (2004).
